# According to US4880014A, “Method for determining therapeutic drug dosage using bioelectrical resistance and reactance measurements” (priority 1988, dated 1989):
# “And” between values parts separate entries of the source, which are not always exact repeats. Identical values can stand only once.
# Columns and labels:
# [1] = Theophylline pharmacokinetics in fifteen normal adult males from serum concentrations (Lagran), and dose calculated from measured Cl; format: in vivo, human
# Description: Fifteen normal adult males were used in the following study. Each subject was given a single intravenous dosage of theophylline.
# Serial blood samples were obtained, for all fifteen patients, from an intravenous catheter placed in the arm.
# F=1.0, assuming 100% oral absorption
# [2] = Theophylline Cl, K and V predicted by bioelectrical impedance (multiple regression), and dose calculated from predicted Cl; set-up: species or system human; details: two-sided t-test
# Description: An excitation current of 800 microamps and frequency of 50 kHz was then applied and (R) and (Xc) values obtained.
# The independent variables set forth in Table VII were used in a stepwise multiple linear regression program to produce the models of best definition for (Cl), (K) and (V) by entering each patients individual variables (Cl), (V) and (K) into the program. It then fits a linear least-squares regression model to the entire set of independent variables to identify the best independent variables and their coefficients for the description of the […] dependent variables (Cl), (K) and (V). Insignificant variables were dropped from the model. The equations generated are those set forth previously as Equation 3, Equation 4 and Equation 5.
# Other internationally recognized programs could also be used and may include BMDP (Biomedical Data Processing) and SPSS (Statistical Programming for the Social Sciences).
# In Table VIII, clearance (Cl), elimination rate constant (K), and volume of distribution (V), determined for theophylline using a multiple regression analysis produced F variable sequence defined in Tables VII and IX are shown in columns B, D, and F, respectively. Table VII is the model sequence used to solve for (Cl), (K) and (V) as derived by stepwise regression analysis. […]
# [3] = human, in vivo, iv
# Method: Twelve human subjects participated in the following study. The resistance (R) and the reactance (Xc) of each patient was measured using a four-terminal impedance plethysmograph. During the measurement, the subjects were placed in the supine position on an insulative surface. The electrodes were attached in the following manner. Those areas of the patient's skin where the electrodes were to be connected were cleaned thoroughly with alcohol. […]
# The elimination rate constant was determined by nonlinear regression analysis of the serum concentration data for each patient using Micrononlin (Micrononlin, Elite Software, box 11223. Pittsburgh. PA 15238).
# Volume of distribution was calculated by the Sawchuk-Zaske method.
# (§1) Calculation of (K) and (V) from the measured serum concentration data was performed as were the dosage regimens using the measured serum concentration data by the equations of Sawchuk and Zaske which will be known to those skilled in the art.
# [4] = Gentamicin K and V predicted by bioelectrical impedance (multiple regression), and dosage regimen calculated from predicted K, V; set-up: species or system human; details: two-sided T-test
# Method: Twelve human subjects participated in the following study. The resistance (R) and the reactance (Xc) of each patient was measured using a four-terminal impedance plethysmograph. During the measurement, the subjects were placed in the supine position on an insulative surface. The electrodes were attached in the following manner. Those areas of the patient's skin where the electrodes were to be connected were cleaned thoroughly with alcohol. The four pre-gelled electrodes were then attached to the patient such that one current electrode was attached to the dorsal surface of the patient's right hand at the distal metacarpals, one current electrode was attached to the patient's right foot at the location of the distal metatarsals, one detector electrode was connected to the patients right wrist at the right pisiform prominence, and one detector electrode was connected to the patient's right ankle between the medial and lateral malleoli. An excitation current of 800 microamps and frequency of 50 kHz was then applied and R and Xc values obtained. […]
# as §1
# [5] = Simulation of gentamicin peak and trough serum concentrations for an average 70 kg patient; set-up: species or system human
# Method: Serum concentrations were then simulated for an average 70 kg patient given a one-hour infusion of the dose to achieve a postdose serum concentration of 6.0 mcg/ml and a predose serum concentration of 1.0 mcg/ml. This simulation was performed with the values of (K) and (V) determined by measured serum concentrations and the calculated dosage regimen from these measured (K) and (V) values, is recorded, respectively, in columns A and B of Table VI. A simulation was also performed with the dosage regimen determined by the bioelectrical impedance analysis of the present invention, using the patient's actual measured (K) and (V), to test the prediction error of the method of dosing of the present invention. Equations A and B which were discussed earlier were used for calculating dosing interval and dose. The latter is recorded respectively in columns C and D of Table VI.
"Elimination Rate Constant (K), Meas., mean [3]",Serum concentrations for all twelve patients [3],"Comparison of K, V and dosage regimens, bioelectrical impedance vs measured serum concentration [4]","Comparison of postdose or predose concentrations simulated from measured K, V vs bioelectrical impedance K, V [5]",Compound,"clearance ([1]; human, serum, iv, 4 mg/kg, mean of fifteen subjects, column A, read-out: Clearance (Cl), Meas., MEAN (converted))","k el ([1]; human, serum, iv, 4 mg/kg, mean of fifteen subjects, column C, read-out: Elimination Rate Constant (K), Meas., MEAN (converted))","Vd ([1]; human, serum, iv, 4 mg/kg, mean of fifteen subjects, column E, read-out: Volume of Distribution (V), Meas., MEAN)","Elimination Rate Constant (K), Meas. ([1]; individual patients (Pt. 1-15), single intravenous 4 mg/kg, 30 minute infusion, column C)","Comparison of K, V, Cl and dosage regimens, bioelectrical impedance vs measured serum concentrations [2]"
,,,,Cn1c(=O)c2[nH]cnc2n(C)c1=O [theophylline],52.3 mL/min,2.36e-05 s⁻¹,39.4 L,.0885 h and .0631 h and .0591 h and .0521 h and .0813 h and .0895 h and .1241 h and .0305 h and .1895 h and .0815 h and .0938 h and .0921 h and .0713 h and .0774 h,no statistically significant differences
.270 hr -1,2000 to 10000 ng/mL,no statistically significant differences,no statistically significant differences,gentamicin,,,,,
